Experimental data as given in article PMC6792352, “Limited Chemical Structural Diversity Found to Modulate Thyroid Hormone Receptor in the Tox21 Chemical Library” (Environmental Health Perspectives, 2019).
Structures can show the parent of a compound that is named as a salt.

Assay: in vitro
Details: rat, gh3-tre-luc cells

Compound	CC50 at 24 h (AC50 (uM) modified / 1000) [µM]	further results
CC(C)Nc1cccnc1N1CCN(C(=O)c2cc3cc(NS(C)(=O)=O)ccc3[nH]2)CC1 [Delavirdine]	> 50	
CC1(C)[C@H](C(=O)O[C@H](C#N)c2cccc(Oc3ccccc3)c2)[C@@H]1C=C(Br)Br [Deltamethrin]	> 100	
CN(CCCCCCCCCCN(C)C(=O)Oc1cccc([N+](C)(C)C)c1)C(=O)Oc1cccc([N+](C)(C)C)c1 [Demecarium bromide]	> 20	
CN(C)[C@@H]1C(O)=C(C(N)=O)C(=O)[C@@]2(O)C(O)=C3C(=O)c4c(O)ccc(Cl)c4[C@@H](O)[C@H]3C[C@@H]12 [Demeclocycline hydrochloride]	> 50	
O=C1C[N+]([O-])=C(c2ccccc2)c2cc(Cl)ccc2N1 [Demoxepam]		CC50 at 24 h (AC50 (uM) modified / 1000, Tox21_110001=Tox21_111817, viability, 1 nM T3 present, 24 h): > 50 µM
CC[N+](CC)(CC(=O)Nc1c(C)cccc1C)Cc1ccccc1 [Denatonium benzoate]	> 50	
COc1ccc(CCNC[C@H](O)c2ccc(O)cc2)cc1OC [Denopamine]	> 50	
CC(=O)OCC(=O)[C@H]1CC[C@H]2[C@@H]3CCC4=CC(=O)CC[C@]4(C)[C@H]3CC[C@]12C [Deoxycorticosterone acetate]	> 50	
CCCCNc1ccc(C(=O)OCCN(CC)CC)cc1 [Depolipon]	> 50	
CN1[C@@H]2CC[C@H]1CC(OC1c3ccccc3CCc3ccccc31)C2 (some centres unmarked) [Deptropine citrate]	12.2	
Cc1cc(N)c2ccccc2[n+]1CCCCCCCCCC[n+]1c(C)cc(N)c2ccccc21 [Dequalinium dichloride]	12.4	
COc1ccc(-c2cc(C(F)F)nn2-c2ccc(S(N)(=O)=O)cc2)cc1F [Deracoxib]	> 50	
CNCCCN1c2ccccc2CCc2ccccc21 [Desipramine hydrochloride]	7.08	
C[C@H]1O[C@@H](O[C@H]2CC[C@@]3(C)[C@H](CC[C@@H]4[C@@H]3C[C@@H](O)[C@]3(C)[C@@H](C5=CC(=O)OC5)CC[C@]43O)C2)C[C@H](O)[C@@H]1O[C@H]1C[C@H](O)[C@H](O[C@H]2C[C@H](O)[C@H](O[C@@H]3O[C@H](CO)[C@@H](O)[C@H](O)[C@H]3O)[C@@H](C)O2)[C@@H](C)O1 [Deslanoside]	> 50	
CCNC(=O)[C@@H]1CCCN1C(=O)[C@H](CCCN=C(N)N)NC(=O)[C@H](CC(C)C)NC(=O)[C@@H](Cc1c[nH]c2ccccc12)NC(=O)[C@H](Cc1ccc(O)cc1)NC(=O)[C@H](CO)NC(=O)[C@H](Cc1c[nH]c2ccccc12)NC(=O)[C@H](Cc1cnc[nH]1)NC(=O)[C@@H]1CCC(=O)N1 [Deslorelin acetate]	1.89	
CCOC(=O)Nc1cccc(OC(=O)Nc2ccccc2)c1 [Desmedipham]		CC50 at 24 h (AC50 (uM) modified / 1000, Tox21_110001=Tox21_301854, viability, 1 nM T3 present, 24 h): > 90 µM
COc1cc(/C=C/c2ccccc2)oc(=O)c1 [Desmethoxyyangonin]	> 90	
O=C1CN=C(c2ccccc2)c2cc(Cl)ccc2N1 [Desmethyldiazepam]	> 50	
N=C(N)NCCC[C@H](NC(=O)[C@@H]1CCCN1C(=O)[C@@H]1CSSCCC(=O)N[C@@H](Cc2ccc(O)cc2)C(=O)N[C@@H](Cc2ccccc2)C(=O)N[C@@H](CCC(N)=O)C(=O)N[C@@H](CC(N)=O)C(=O)N1)C(=O)NCC(N)=O [Desmopressin acetate]	> 50	
NC(=O)CC[C@@H]1NC(=O)[C@H](Cc2ccccc2)NC(=O)[C@H](Cc2ccc(O)cc2)NC(=O)CCSSC[C@@H](C(=O)N2CCC[C@H]2C(=O)N[C@H](CCCN=C(N)N)C(=O)NCC(N)=O)NC(=O)[C@H](CC(N)=O)NC1=O [Desmopressin]	> 50	
C#C[C@]1(O)CC[C@H]2[C@@H]3CCC4=CCCC[C@@H]4[C@H]3C(=C)C[C@@]21CC [Desogestrel]	34.9	
CC1(C)O[C@@H]2C[C@H]3[C@@H]4CCC5=CC(=O)C=C[C@]5(C)[C@H]4[C@@H](O)C[C@]3(C)[C@]2(C(=O)CO)O1 [Desonide]	> 50	
C[C@@H]1C[C@H]2[C@@H]3CCC4=CC(=O)C=C[C@]4(C)[C@@]3(F)[C@@H](O)C[C@]2(C)[C@H]1C(=O)CO [Desoximetasone]	> 50	

Compound	CC50 at 24 h (AC50 (uM) modified / 1000) [µM]	further results
CC(C)(C)C(=O)OCC(=O)[C@H]1CC[C@H]2[C@@H]3CCC4=CC(=O)CC[C@]4(C)[C@H]3CC[C@]12C [Desoxycorticosterone pivalate]	> 50	
Cc1cccc(Cc2c[nH]cn2)c1C [Detomidine hydrochloride]	> 50	
CN1C(=O)[C@@H](NC(=O)c2cc3ccccc3[nH]2)N=C(c2ccccc2)c2ccccc21 [Devazepide]	> 50	
CCC(=O)OCC(=O)[C@@]1(OC(=O)CC)[C@H](C)C[C@H]2[C@@H]3CCC4=CC(=O)C=C[C@]4(C)[C@@]3(F)[C@@H](O)C[C@@]21C [Dexamethasone dipropionate]	> 50	
C[C@@H]1C[C@H]2[C@@H]3CCC4=CC(=O)C=C[C@]4(C)[C@@]3(F)[C@@H](O)C[C@]2(C)[C@@]1(O)C(=O)CO [Dexamethasone]	> 90	
C[C@@H]1C[C@H]2[C@@H]3CCC4=CC(=O)C=C[C@]4(C)[C@@]3(F)[C@@H](O)C[C@]2(C)[C@@]1(O)C(=O)COC(=O)c1cccc(S(=O)(=O)O)c1 [Dexamethazone metasulfobenzoate sodium]	> 50	
CN(C)CC[C@@H](c1ccc(Br)cc1)c1ccccn1 [Dexbrompheniramine maleate]	26.6	
CN(C)CC[C@@H](c1ccc(Cl)cc1)c1ccccn1 [Dexchlorpheniramine hydrochloride]	24.8	
CCN[C@@H](C)Cc1cccc(C(F)(F)F)c1 [Dexfenfluramine hydrochloride]		CC50 at 24 h (AC50 (uM) modified / 1000, Tox21_110001=Tox21_112864, viability, 1 nM T3 present, 24 h): > 90 µM
N[C@@H](COP(=O)(O)O)C(=O)O [Dexfosfoserine]	> 50	
CC(C)Cc1ccc([C@H](C)C(=O)O)cc1 [Dexibuprofen]	> 50	
CC(C)(CO)[C@@H](O)C(=O)NCCCO [Dexpanthenol]	> 50	
CC(C)NC[C@@H](O)COc1cccc2ccccc12 [Dexpropranolol]	27.7	
C[C@@H](CN1CC(=O)NC(=O)C1)N1CC(=O)NC(=O)C1 [Dexrazone]	> 50	
COc1ccc2c(c1)[C@]13CCCC[C@@H]1[C@H](C2)N(C)CC3 [Dextromethorphan hydrobromide monohydrate]		CC50 at 24 h (AC50 (uM) modified / 1000, Tox21_110001=Tox21_110766, viability, 1 nM T3 present, 24 h): > 50 µM
C[C@H](CN1CCOCC1)C(C(=O)N1CCCC1)(c1ccccc1)c1ccccc1 [Dextromoramide tartrate]		CC50 at 24 h (AC50 (uM) modified / 1000, Tox21_110001=Tox21_112829, viability, 1 nM T3 present, 24 h): > 100 µM
CN1CC[C@@]23CCCC[C@@H]2[C@@H]1Cc1ccc(O)cc13 [Dextrorphan tartrate]	> 50	
C[N+](C)(C)CC(O)CCl (centres unmarked) [Dextrosil]	> 90	
CCCC[C@@H](CC)COC(=O)c1ccccc1C(=O)OC[C@@H](CC)CCCC [Di(2-ethylhexyl) phthalate]	> 90	
COCCOC(=O)c1ccccc1C(=O)OCCOC [Di(2-methoxyethyl) phthalate]	> 90	
C=C(C)C(=O)OCCOCCOC(=O)C(=C)C [Di(ethylene glycol) dimethacrylate]	> 90	
CC(COC(C)(C)C)OCCCO (centres unmarked) [Di(propylene glycol) tert-butyl ether]	> 90	
CCCCCCCCCCCCCOC(=O)CCSCCC(=O)OCCCCCCCCCCCCC [Di(tridecyl) thiodipropionate]	> 20	

Compound	CC50 at 24 h (AC50 (uM) modified / 1000) [µM]	further results
CCCCCCCCOC(=O)c1ccccc1C(=O)OCCCCCCCC [Di-n-octyl phthalate]	> 90	
CC(=O)Oc1cccc2c1C(=O)c1c(OC(C)=O)cc(C(=O)O)cc1C2=O [Diacerein]	> 50	
CC(=O)Nc1ccc(OC(C)=O)cc1 [Diacetamate]	> 50	
CC(=O)CC(C)(C)O [Diacetone alcohol]	> 90	
CC(=O)NNC(C)=O [Diacetyl hydrazine]	> 90	
CCOP(=S)(OCC)SC(CCl)N1C(=O)c2ccccc2C1=O (centres unmarked) [Dialifor]		CC50 at 24 h (AC50 (uM) modified / 1000, Tox21_110001=Tox21_300794, viability, 1 nM T3 present, 24 h): > 90 µM
CC(C)N(C(=O)SC/C(Cl)=C/Cl)C(C)C [Diallate]		CC50 at 24 h (AC50 (uM) modified / 1000, Tox21_110001=Tox21_200642, viability, 1 nM T3 present, 24 h): 92.9 µM
C=CCSSCC=C [Diallyl disulfide]	> 90	
C=CCOC(=O)c1ccccc1C(=O)OCC=C [Diallyl phthalate]	> 90	
C=CCSSSCC=C [Diallyl trisulfide]	> 50	
C=CCNCC=C [Diallylamine]	> 90	
C=CC[N+](C)(C)CC=C [Diallyldimethylammonium chloride]	> 90	
CC(=O)Nc1ccc(OCCOCCOc2ccc(NC(C)=O)cc2)cc1 [Diamfenetide]	> 50	
N#C/C(N)=C(/N)C#N [Diaminomaleonitrile]		CC50 at 24 h (AC50 (uM) modified / 1000, Tox21_110001=Tox21_200991, viability, 1 nM T3 present, 24 h): > 90 µM
CCN(CC)CCOc1ccc2nc(N(C)C)sc2c1 [Diamthazole]	> 50	
Nc1ccc(C(=O)Nc2ccccc2N)cc1 [Dianiline]	14.1	
CC(=O)Nc1c(I)c(NC(C)=O)c(I)c(C(=O)O)c1I [Diatrizoic acid dihydrate]	> 50	
COc1ccc(Cc2cnc(N)nc2N)cc1OC [Diaveridine]	> 50	
CCOP(=S)(OCC)Oc1cc(C)nc(C(C)C)n1 [Diazinon]	> 90	
c1ccc(N=NNc2ccccc2)cc1 [Diazoaminobenzene]		CC50 at 24 h (AC50 (uM) modified / 1000, Tox21_110001=Tox21_202253, viability, 1 nM T3 present, 24 h): 69 µM; CC50 at 24 h (AC50 (uM) modified / 1000, Tox21_110001=Tox21_303249, viability, 1 nM T3 present, 24 h): 47.9 µM
O=C1C(N(CO)C(=O)NCO)N(CO)C(=O)N1CO (centres unmarked) [Diazolidinyl urea]	> 90	
